Measured values reported in EP0113508A1, “Hydrophobic platinum compounds and their preparation” (Inco Research & Development Center, Inc., priority 1982, dated 1984).

Columns and labels:
[1] = Toxicity (LD10) of the cis Pt (II) analogues in PC vesicles; format: in vivo, mice; settings: passed through G-50 column, preliminary
L1210 leukemic cells = assay: Chemotherapy of mice injected intravenously with L1210 leukemic cells; increase in life span (ILS) versus controls; format: in vivo; settings: preliminary
Description: To deliver the water insoluble cis Pt (II) analogues for chemotheraphy, they were encapsulated in sonicated phosphatidylcholine (PC) vesicles. To prepare these PC vesicles, both the cis Pt (II) analogue and PC had to be lyophilized from cyclohexane or benzene to give a dry powder for hydration by an aqueous medium. Simply drying down an organic solution of both the cis Pt (II) analogue and the PC gave unsatisfactory results upon hydration. The lyophilized samples were hydrated with physiological saline and then sonicated at 4°C using a W-375 Branson sonicator, under a nitrogen atmosphere. The sonicated samples were spun at 12,000 x G for 5 minutes to remove any titanium fragments from the sonicator probe and any undispersed lipid. […] Therefore all preparations were passed down a G-50 gel permeation column to separate any free cis Pt (II) from the hydrophobic cis Pt (II) analogue encapsulated in egg PC vesicles had better structural integrity and more uniform size distribution than the same analogues in soy PC vesicles. […] That is, the vesicles containing the cis Pt (II) analogues that had the lowest amounts of free phosphatidic acid, had the best structural stability and smaller size ranges. This is in direct contrast to the effect of phosphatidic acid in PC vesicles in the absence of the cis Pt (II) analogues.
The fractions from the G-50 column containing the encapsulated cis Pt (II) analogues were concentrated by ultrafiltration to the desired concentration for chemotheraphy studies.
Various compounds synthesized and incorporated in liposomal vesicles in the foregoing manner were employed in the chemotherapy of mice. The testing consisted of injections of 10 5 L1210 leukemic cells intravenuously into mice. One day later, a single -intravenous dose of the cis Pt (II) analogue in a sonicated PC vesicle was given. Increase in life span (ILS) was then measured relative to control animals who received only saline or PC vesicles alone as intravenous injections. Data are shown in Table I, together with data on some tests in which samples were not passed through a gel permeation column to remove free cis Pt (II), but an injectable preparation was made by the addition of "Tween" 80.

[2] = Soy PC vesicle, passed through G-50 column, single intravenous dose one day after L1210 cells i.v.
[3] = Soy PC vesicle, passed through G-50 column, single intravenous dose
[4] = Egg PC vesicle, passed through G-50 column, single intravenous dose one day after L1210 cells i.v.
[5] = Egg PC vesicle, passed through G-50 column, single intravenous dose

| Substance | LD10 ([1]; Soy PC vesicle) [mg Pt/kg] | % ILS at Optimal Dose (L1210 leukemic cells; [2]) [%] | Optimal Dose (L1210 leukemic cells; [3]) [mg Pt/kg] | LD10 ([1]; Egg PC vesicle) [mg Pt/kg] | % ILS at Optimal Dose (L1210 leukemic cells; [4]) [%] | Optimal Dose (L1210 leukemic cells; [5]) [mg Pt/kg] | % ILS at Optimal Dose (L1210 leukemic cells; Soy PC vesicle, samples not treated by G-50 column and Tween-80 added, single intravenous dose) [%] |
| --- | --- | --- | --- | --- | --- | --- | --- |
| Soy Phosphatidic Acid Bis Isoamylamine Cis Pt (II) | 345 | 8 | 155 | – | – | – | – |
| Dioleyl Phosphaditic Acid 1,2 Diaminocyclohexane Cis Pt (II) [Dioleyl phosphatidic acid DAC] | – | – | – | 58 | 83 | 39 | 0 |
| Soy Phosphatidic Acid Bis Cyclopentylamine Cis Pt (II) | 125 | 16 | 125 | – | – | – | – |
| Egg Phosphaditic Acid 1,2 Diaminocyclohexane Cis Pt (II) [Egg phosphatidic acid DAC] | – | – | – | >58 | 50 | 26 | – |
| Dipalmitoyl Phosphatidic Acid 1,2 Diaminocyclohexane Cis Pt (II) [Dipalmitoyl phosphatidic acid DAC] | – | – | – | 58 | 100 | 39 | – |
| Soy Phosphaditic Acid Bis Cyclohexylamine Cis Pt (II) | 500 | 16 | 155 | – | – | – | – |
